Laboratory results reported in article PMC9144402, “An Octopus-Derived Peptide with Antidiuretic Activity in Rats” (Marine Drugs, 2022).
Positions of bridges follow the written chain, without caps; N, C: chain ends. Residues, ends and D or L forms follow the SMILES beside them. No end group written: not given here.

How the values were obtained:
[1] = tested on: V1aR; details: ref [17]; cited from earlier work
[2] = tested on: Sprague-Dawley (SD) rats; test: Antidiuretic experiment in SD rats (single tail intravenous injection, metabolic cage); type: in vivo, rat
[3] = tested on: HEK293T human kidney cells; test: CCK-8 cell viability assay and morphology, HEK293T; type: cell-based; details: for viable HEK293T cells: 0.1–50 μM
Method: Human kidney HEK293T cells were obtained from the American Type Culture Collection (ATCC, Manassas, VA, USA). The 293T cells were grown in DMEM supplemented with 10% fetal bovine serum (HyClone, Logan, UT, USA) and penicillin–streptomycin. Cells were incubated at 37 °C in a humidified atmosphere with 95% air/5% CO2. HEK293T cells (5 × 10^3) were incubated in 96-well plates to measure cell viability using a Cell Counting Kit-8 (CCK-8; Dojindo Laboratories, Kumamoto, Japan). After overnight incubation, the medium was changed to fresh medium containing CPT at doses of 50~0.1 μM in three wells each. Then, the cells were incubated for 24, 48, or 72 h and photographed under a phase-contrast microscope. We added 100 μL of fresh medium and 10 μL of CCK-8 solution to each well. After incubation for 3 h at 37 °C, the optical density (OD) at 450 nm was measured using a Spectramax i3x instrument (Molecular Devices, San Jose, CA, USA). The cell viability was calculated as follows: cell viability (%) = (OD (experiment) − OD (blank))/(OD (control) − OD (blank)) × 100%

[4] = tested on: Sprague-Dawley (SD) rats; test: Death and signs of toxicity after intravenous injection in SD rats; type: in vivo, rat; details: for death or signs of toxicity: injection, 'the same doses' (AVP: data not shown)
[5] = administered intravenously; no reference printed ('generally known'); cited from earlier work
[6] = tested on: rat V2R; design: method as in PMID 9264324; details: ref [8]; cited from earlier work
[7] = tested on: rat V1bR; design: method as in PMID 9264324; details: ref [8]; cited from earlier work
[8] = tested on: V1aR; details: no reference given; cited from earlier work
Excerpt: (§1) Currently, desmopressin is the antidiuretic drug of choice for the treatment of excessive and/or uncontrolled urination. […] Although desmopressin is generally considered safe and efficacious in the treatment o ...

[9] = treatment of nocturia, enuresis, and diabetes insipidus; ref [26]; cited from earlier work
Excerpt: as §1

[10] = target: T1, human V2R (Homo sapiens, UniProt P30518); test: V2R functional assay, agonist effect (cAMP accumulation, HTRF, CHO cells); type: cell-based
T1 construct: host or cells: CHO
Method: (§2) Detailed information about the cells tested and other experimental conditions are described in Table 2. Briefly, cells were transfected with a recombinant expression vector capable of expressing each type of human OXT/AVP receptor. To evaluate the agonist effects on OXTR, V1aR, and V1bR, the intracellular Ca^2+ increase after treatment with OTP or CPT was measured by fluorimetry. […] For V2R receptors, cells were treated with peptides with or without the stimulant for 30 min. After that, cyclic AMP (cAMP) concentrations were measured by homogeneous time-resolved fluorescence (HTRF). The results were represented as the percent submaximal response achieved by the stimulant. All experiments were performed in triplicate. Data are presented as the mean ± standard error of the mean. The 50% effective concentration (EC50) and 50% inhibitory concentration (IC50) values were determined using a 4-parameter logistic fitting of a dose–response curve using SigmaPlot 10.0 (Systat Software, Palo Alto, CA, USA).

[11] = target: T2, human V1bR (Homo sapiens, UniProt P47901); test: V1bR functional assay, agonist effect (intracellular Ca^2+ increase, fluorimetry, RBL cells); type: cell-based
T2 construct: host or cells: RBL
T2 sequence (P47901 1-424): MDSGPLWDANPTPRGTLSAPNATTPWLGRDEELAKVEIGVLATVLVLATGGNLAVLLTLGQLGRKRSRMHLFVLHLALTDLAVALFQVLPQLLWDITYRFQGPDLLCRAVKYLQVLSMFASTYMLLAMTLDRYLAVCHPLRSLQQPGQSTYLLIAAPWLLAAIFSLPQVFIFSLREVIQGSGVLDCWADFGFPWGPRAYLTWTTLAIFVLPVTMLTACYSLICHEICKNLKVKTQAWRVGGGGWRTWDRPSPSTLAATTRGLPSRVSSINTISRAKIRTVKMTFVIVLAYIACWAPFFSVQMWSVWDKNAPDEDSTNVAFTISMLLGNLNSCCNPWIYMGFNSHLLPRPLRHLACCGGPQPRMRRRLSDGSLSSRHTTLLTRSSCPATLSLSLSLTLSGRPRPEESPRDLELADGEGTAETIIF
Method: as §2

[12] = target: T3, human V1aR (Homo sapiens, UniProt P37288); test: V1aR functional assay, agonist effect (intracellular Ca^2+ increase, fluorimetry, CHO cells); type: cell-based; details: up to 50 μM, RT, % of control response (1 µM AVP), triplicate
T3 construct: host or cells: CHO
T3 sequence (P37288 whole entry): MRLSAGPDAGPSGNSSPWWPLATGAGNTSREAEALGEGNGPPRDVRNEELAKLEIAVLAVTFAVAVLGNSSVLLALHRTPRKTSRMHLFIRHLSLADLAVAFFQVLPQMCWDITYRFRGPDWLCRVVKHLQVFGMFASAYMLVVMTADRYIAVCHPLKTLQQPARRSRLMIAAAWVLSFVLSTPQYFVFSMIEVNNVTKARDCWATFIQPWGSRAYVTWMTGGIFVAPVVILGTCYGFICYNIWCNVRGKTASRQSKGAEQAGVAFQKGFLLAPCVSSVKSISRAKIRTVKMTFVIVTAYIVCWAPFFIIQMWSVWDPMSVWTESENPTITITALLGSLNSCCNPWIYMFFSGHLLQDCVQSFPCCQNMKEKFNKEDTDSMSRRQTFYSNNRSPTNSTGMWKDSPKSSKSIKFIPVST
Method: as §2

[13] = target: T3, human V1aR; test: V1aR functional assay, antagonist effect (10 nM AVP-induced intracellular Ca^2+, fluorimetry, CHO cells); type: cell-based
Method: as §2

[14] = target: T4, human OXTR (Homo sapiens, UniProt P30559); test: OXTR functional assay, antagonist effect (30 nM OXT-induced intracellular Ca^2+, fluorimetry, ECV304 cells); type: cell-based
T4 construct: host or cells: ECV304
T4 sequence (P30559 1-389): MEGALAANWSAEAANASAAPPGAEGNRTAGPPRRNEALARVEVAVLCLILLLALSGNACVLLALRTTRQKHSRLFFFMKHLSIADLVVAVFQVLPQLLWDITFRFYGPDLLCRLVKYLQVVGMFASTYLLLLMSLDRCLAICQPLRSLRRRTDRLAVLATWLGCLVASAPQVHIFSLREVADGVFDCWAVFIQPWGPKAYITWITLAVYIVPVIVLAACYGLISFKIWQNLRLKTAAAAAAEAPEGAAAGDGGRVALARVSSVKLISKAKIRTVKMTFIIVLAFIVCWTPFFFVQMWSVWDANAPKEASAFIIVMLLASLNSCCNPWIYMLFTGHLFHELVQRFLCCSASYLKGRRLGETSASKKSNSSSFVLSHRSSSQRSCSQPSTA
Method: as §2

[15] = target: T4, human OXTR; test: OXTR functional assay, agonist effect (intracellular Ca^2+ increase, fluorimetry, transfected ECV304 cells); type: cell-based; details: up to 50 μM, RT, % of control response (1 µM OXT), triplicate
Method: as §2

[16] = target: T5, human AVP type 1b receptor (human) (UniProt P47901)
T5 sequence: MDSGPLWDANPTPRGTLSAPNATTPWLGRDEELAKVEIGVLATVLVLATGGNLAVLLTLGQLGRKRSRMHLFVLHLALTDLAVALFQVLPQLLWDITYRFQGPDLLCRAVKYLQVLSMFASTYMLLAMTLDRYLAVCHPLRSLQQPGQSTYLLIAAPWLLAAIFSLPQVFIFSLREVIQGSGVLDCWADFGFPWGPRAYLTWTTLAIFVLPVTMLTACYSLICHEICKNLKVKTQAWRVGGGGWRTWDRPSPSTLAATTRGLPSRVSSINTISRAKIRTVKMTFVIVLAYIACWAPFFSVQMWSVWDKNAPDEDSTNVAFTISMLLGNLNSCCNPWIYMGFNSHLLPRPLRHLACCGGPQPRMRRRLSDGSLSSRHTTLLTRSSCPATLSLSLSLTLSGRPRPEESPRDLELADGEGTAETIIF

[17] = target: human AVP type 2 receptor (human) (UniProt P30518)
[18] = target: human vasopressin receptor V1aR (human) (UniProt P37288)
Chain of human vasopressin receptor V1aR (human) (P37288 whole entry): as the sequence (P37288 whole entry) above

[19] = target: human oxytocin receptor (human) (UniProt P30559)
[20] = target: human AVP type 2 receptor (human) (UniProt P30518); remark: listed apart in the source
[21] = target: human oxytocin receptor (human) (UniProt P30559); remark: listed apart in the source
[22] = 24 h after treatment, CCK-8, triplicate
[23] = 48 h after treatment, CCK-8, triplicate
[24] = nanomolar level of CPT (Figure 2E, 36.55 nM), calculated by curve-fitting

## inotocin
[1]
  V1aR activity (in words): selective antagonists of V1aR

## NC(=O)CC[C@@H]1NC(=O)[C@H](Cc2ccccc2)NC(=O)[C@H](Cc2ccc(O)cc2)NC(=O)[C@@H](N)CSSC[C@@H](C(=O)N2CCC[C@H]2C(=O)N[C@@H](CCCN=C(N)N)C(=O)NCC(N)=O)NC(=O)[C@H](CC(N)=O)NC1=O [AVP, arginine vasopressin]
[2]; SD rats, 0.001 mg/mL/kg micro intravenous tail administration
  antidiuretic effect (in words): shows an antidiuretic effect
[3]; [22]
  viable HEK293T cells: Over 98%
[3]; [23]
  viable HEK293T cells: Over 98%
[3]; 72 h, 0.1–10 μM, CCK-8, triplicate
  viability compared to PBS control (in words): slightly increase the viability
[4]; 0.001 mg/mL/kg micro intravenous tail administration
  lethality: occasionally lethal
[4]
  death or signs of toxicity: occasionally caused death
[5]
  half-life: several minutes
[6]
  EC50: 0.0435 µM
[7]
  EC50: 0.00131 µM

## Mpr-YFQNCP(D-Arg)G-NH2 (disulfide bond) (disulfide) [Desmopressin, 1-deamino-8-D-arginine vasopressin, positive control]
[2]; male rats under 200 g, single microvenous injection, n=6 for each group
  osmolarity (in words): no change
[4]
  death or signs of toxicity: did not cause any death or signs of toxicity
[8]
  V1aR-mediated pressor activity: low
[9]
  serious adverse effect: hyponatremia
[5]
  half-life: several hours

## CC[C@H](C)[C@H](NC(=O)[C@@H]1CCCN1C(=O)[C@@H]1CSSC[C@H](N)C(=O)N[C@@H](Cc2ccc(O)cc2)C(=O)N[C@@H](Cc2ccccc2)C(=O)N[C@@H](CCCNC(=N)N)C(=O)N[C@@H](CC(N)=O)C(=O)N1)C(=O)NCC(N)=O [CPT, cephalotocin] (H-CYFRNCPIG-NH2; disulfide 1-6)
[3]
  cell morphology: unchanged
[3]; [22]
  viable HEK293T cells: Over 98%
[3]; [23]
  viable HEK293T cells: Over 98%
[10]; CHO, cAMP, HTRF, 30 min RT, 4-parameter logistic fitting, triplicate
  EC50: 0.0121 µM
[10]; [24]
  expected V2R activation, nanomolar level: ~ 80%
[4]
  death or signs of toxicity: did not cause any death or signs of toxicity
[4]; single intravenous injection (1 mg/mL/kg)
  lethality: did not kill the experimental animals
[11]; RBL, intracellular Ca^2+, fluorimetry, RT, 4-parameter logistic fitting, triplicate
  EC50: 0.01 µM
[11]; [24]
  expected V1bR activation, nanomolar level: ~ 80%
[12]
  V1aR-mediated intracellular Ca^2+ increase (agonist effect): not activated
[13]
  IC50: 1.23 µM
[13]; CHO, micromolar level (Figure 2F, 1.65 μM), calculated by curve-fitting, read-out: expected V1aR inhibition, micromolar level
  inhibition at 1.65 µM: ≥ 50%
[13]; [24]
  expected effect on V1aR, nanomolar level: < 20%
[14]; ECV304, stimulant 30 nM OXT, RT, fluorimetry, 4-parameter logistic fitting, triplicate
  IC50: > 50 µM
[14]; [24]
  expected effect on OXTR, nanomolar level: < 20%
[15]
  OXTR-mediated intracellular Ca^2+ increase (agonist effect): not activated

B1: Cephalotocin (peptide)
peptide: CYFRNCPIG-NH2
modifications: disulfide 1-6; N-terminus assumed
SMILES: CC[C@H](C)[C@H](NC(=O)[C@@H]1CCCN1C(=O)[C@@H]1CSSC[C@H](N)C(=O)N[C@@H](Cc2ccc(O)cc2)C(=O)N[C@@H](Cc2ccccc2)C(=O)N[C@@H](CCCNC(=N)N)C(=O)N[C@@H](CC(N)=O)C(=O)N1)C(=O)NCC(N)=O
[16]
  EC50 of V1bR-mediated intracellular Ca^2+ release (agonist effect) in RBL cells expressing human V1bR, fluorimetry: 0.01 µM
[17]
  EC50 of V2R-mediated cAMP accumulation (agonist effect) in CHO cells expressing human V2R, HTRF: 0.0121 µM
[18]
  IC50 of the antagonist effect on intracellular Ca^2+ release induced by 10 nM AVP in CHO cells expressing human V1aR (pair blocked: AVP and V1aR): 1.23 µM
[19]
  IC50 of the antagonist effect on intracellular Ca^2+ release induced by 30 nM OXT in ECV304 cells expressing human OXTR (pair blocked: OXT and OXTR): > 50 µM

B2: Octopressin (peptide)
peptide: CYWTSCPIG-NH2
modifications: disulfide 1-6; N-terminus assumed
SMILES: CC[C@H](C)[C@H](NC(=O)[C@@H]1CCCN1C(=O)[C@@H]1CSSC[C@H](N)C(=O)N[C@@H](Cc2ccc(O)cc2)C(=O)N[C@@H](Cc2c[nH]c3ccccc23)C(=O)N[C@@H]([C@@H](C)O)C(=O)N[C@@H](CO)C(=O)N1)C(=O)NCC(N)=O
[20]
  V2R-mediated cAMP accumulation (agonist effect) in CHO cells expressing human V2R, percent of the control response at 50 μM OTP: < 30%
[21]
  antagonist effect on intracellular Ca^2+ release induced by 30 nM OXT in ECV304 cells expressing human OXTR (pair blocked: OXT and OXTR), inhibition rate at 50 μM OTP: 30%
